Paper PMC12811997 (Chemmedchem, 2025)
Values after ≈ are worked out from the molar mass of the structure shown. Structures can show the parent of a compound that is named as a salt. Where two headings read alike, the source gives them in different places.

Experiments:
in vitro = conditions: human
Experimental: Cytotoxicity was evaluated by incubating the same two‐fold serial dilutions of each compound with Calu‐3 cells as above but without the virus. Following 3 days of incubation at 37 °C in 5% CO2, the cell viability was determined by the addition of XTT solution as above. The compound cytotoxic concentrations resulting in a 50% reduction of absorbance (CC50) were calculated from plots of the percentage of absorbance versus log10 of drug concentration as above.

Kinetic solubility = conditions: for kinetic solubility: as restated in Conclusions
[1] = target: SARS‐CoV‐2 RdRp complex (nsp12, nsp7, nsp8) (Severe acute respiratory syndrome coronavirus 2, UniProt P0DTD1); assay: biochemical; type: biochemical; conditions: for remaining activity at 10 µM: read-out: RA ± SD (residual activity of RdRp), at 10 μM concentration of screened compounds, AUC with compound / AUC of noninhibited reaction
SARS‐CoV‐2 = assay: microbe, parasite or virus in culture; type: cell-based; conditions: Severe acute respiratory syndrome coronavirus 2; Calu‐3 cells infected with SARS‐CoV‐2; concentration required to reduce viral cytopathic effect by 50%; read-out: EC50

Compound	CC50 at 3 days (in vitro) [µM]	remaining activity at 10 µM [1] [%]	EC50 (SARS‐CoV‐2) [µM]	solubility kinetic (Kinetic solubility; kinetic from dmso stock) [µM]	other results
O=C(Nc1cccc(C(F)(F)F)c1)Nc1ccc(Cl)cc1Cl [Compound 9, 1‐(2,4‐Dichlorophenyl)‐3‐(3‐(Trifluoromethyl)Phenyl)Urea]	6.9 ± 0.94	64 ± 12	> 6.9	–	solubility kinetic (Kinetic solubility): < 2 µM
O=C(Nc1cccc(C(F)(F)F)c1)Nc1c(Cl)cccc1Cl [Compound 10, 1‐(2,6‐Dichlorophenyl)‐3‐(3‐(Trifluoromethyl)Phenyl)Urea]	–	100	–	–	–
O=C(Nc1ccc(C(F)(F)F)cc1)Nc1cc(Cl)cc(Cl)c1 [Compound 13, 1‐(3,5‐Dichlorophenyl)‐3‐(4‐(Trifluoromethyl)Phenyl)Urea]	0.29 ± 0.03	34 ± 14	> 0.29	< 2.1	–
O=C(Nc1cc(Cl)cc(Cl)c1)Nc1ccccc1C(F)(F)F [Compound 14, 1‐(3,5‐Dichlorophenyl)‐3‐(2‐(Trifluoromethyl)Phenyl)Urea]	–	100	–	–	–
O=C(Nc1ccc(C(F)(F)F)nc1)Nc1cc(Cl)cc(Cl)c1 [Compound 15, 1‐(3,5‐Dichlorophenyl)‐3‐(6‐(Trifluoromethyl)Pyridin‐3‐Yl)Urea]	1.3 ± 0.13	35 ± 9	> 1.3	–	–
O=C(Nc1cc(Cl)cc(Cl)c1)Nc1ccc(C(F)(F)F)cn1 [Compound 16, 1‐(3,5‐Dichlorophenyl)‐3‐(5‐(Trifluoromethyl)Pyridin‐2‐Yl)Urea]	–	100	–	–	–
O=C(Nc1cc(Cl)cc(Cl)c1)Nc1ccc(C(F)(F)F)nn1 [Compound 17, 1‐(3,5‐Dichlorophenyl)‐3‐(6‐(Trifluoromethyl)Pyridazin‐3‐Yl)Urea]	–	68 ± 9	–	–	–
O=C(Nc1cnc(C(F)(F)F)nc1)Nc1cc(Cl)cc(Cl)c1 [Compound 18, 1‐(3,5‐Dichlorophenyl)‐3‐(2‐(Trifluoromethyl)Pyrimid‐5‐Yl)Urea]	1.1 ± 0.11	42 ± 10	> 1.1	27 ± 6 (≈ 9.48 µg/mL)	kinetic solubility (Kinetic solubility): 27 µM/L; effect in combination with remdesivir [1]: potentiates the effect of remdesivir; mode of inhibition ([1]; versus ATP, enzymatic study): competitive inhibitor of ATP
O=C(Nc1cc(Cl)cc(Cl)c1)Nc1cnc(C(F)(F)F)cn1 [Compound 19, 1‐(3,5‐Dichlorophenyl)‐3‐(5‐(Trifluoromethyl)Pyrazin‐2‐Yl)Urea]	–	75 ± 8	–	–	–
NC(=O)c1ccc(NC(=O)Nc2cc(Cl)cc(Cl)c2)cc1C(F)(F)F [Compound 24, 4‐(3‐(3,5‐Dichlorophenyl)Ureido)‐2‐(Trifluoromethyl)Benzamide]	14 ± 1	~65	> 14	32.5 ± 0.8 (≈ 12.7 µg/mL)	kinetic solubility (Kinetic solubility): 32.5 µM L^−1
NC(=O)c1ccc(C(F)(F)F)cc1NC(=O)Nc1cc(Cl)cc(Cl)c1 [Compound 25, 2‐(3‐(3,5‐Dichlorophenyl)Ureido)‐4‐(Trifluoromethyl)Benzamide]	–	100	–	–	–
NC(=O)c1c(Cl)cc(Cl)cc1NC(=O)Nc1cccc(C(F)(F)F)c1 [Compound 28, 2,4‐Dichloro‐6‐(3‐(3‐(Trifluoromethyl)Phenyl)Ureido)Benzamide]	–	100	–	–	–
Cl.O=C(Nc1cc(Cl)cc(Cl)c1)Nc1ccc(CN2CCCC2)c(C(F)(F)F)c1 [Compound 38, 1‐(3,5‐Dichlorophenyl)‐3‐(4‐(Pyrrolidin‐1‐Ylmethyl)‐3‐(Trifluoromethyl)Phenyl)Urea Hydrochloride]	19 ± 1	46 ± 2	> 19	< 2	–
Cl.O=C(Nc1cc(Cl)cc(Cl)c1)Nc1ccc(CN2CCOCC2)c(C(F)(F)F)c1 [Compound 39, 1‐(3,5‐Dichlorophenyl)‐3‐(4‐(Morpholinomethyl)‐3‐(Trifluoromethyl)Phenyl)Urea Hydrochloride]	8.4 ± 1.1	36 ± 7	> 8.4	4.2 ± 0.3	kinetic solubility (Kinetic solubility): 4.2 µM L^−1
CN1CCN(Cc2ccc(NC(=O)Nc3cc(Cl)cc(Cl)c3)cc2C(F)(F)F)CC1.Cl [Compound 40, 1‐(3,5‐Dichlorophenyl)‐3‐(4‐((4‐Methylpiperazin‐1‐Yl)Methyl)‐3‐(Trifluoromethyl)Phenyl)Urea Hydrochloride]	13 ± 0.8	~65	> 13	43.5 ± 0.8	kinetic solubility (Kinetic solubility): 43.5 µM L^−1
NCc1ccc(NC(=O)Nc2cc(Cl)cc(Cl)c2)cc1C(F)(F)F [Compound 41, 1‐(4‐(Aminomethyl)‐3‐(Trifluoromethyl)Phenyl)‐3‐(3,5‐Dichlorophenyl)Urea Hydrochloride]	–	78 ± 5	–	–	–
Cl.O=C(Nc1cc(Cl)cc(Cl)c1)Nc1ccc(C(F)(F)F)c(CN2CCCC2)c1 [Compound 46, 1‐(3,5‐Dichlorophenyl)‐3‐(3‐(Pyrrolidin‐1‐Ylmethyl)‐4‐(Trifluoromethyl)Phenyl)Urea Hydrochloride]	~15	67 ± 7	> 15	11.9 ± 0.4	–
Cl.O=C(Nc1cc(Cl)cc(Cl)c1)Nc1ccc(C(F)(F)F)c(CN2CCOCC2)c1 [Compound 47, 1‐(3,5‐Dichlorophenyl)‐3‐(3‐(Morpholinomethyl)‐4‐(Trifluoromethyl)Phenyl)Urea Hydrochloride]	5.3 ± 0.48	65 ± 5	> 5.3	< 2	–
CN1CCN(Cc2cc(NC(=O)Nc3cc(Cl)cc(Cl)c3)ccc2C(F)(F)F)CC1 [Compound 48, 1‐(3,5‐Dichlorophenyl)‐3‐(3‐((4‐Methylpiperazin‐1‐Yl)Methyl)‐4‐(Trifluoromethyl)Phenyl)Urea Hydrochloride]	–	100	–	–	–
CN1CCN(Cc2c(Cl)cc(NC(=O)Nc3cccc(C(F)(F)F)c3)cc2Cl)CC1 [Compound 54, 1‐(3,5‐Dichloro‐4‐((4‐Methylpiperazin‐1‐Yl)Methyl)Phenyl)‐3‐(3‐(Trifluoromethyl)Phenyl)Urea Hydrochloride]	–	79 ± 5	–	–	–
COCCNCc1ccc(NC(=O)Nc2cc(Cl)cc(Cl)c2)cc1C(F)(F)F [Compound 58, 1‐(3,5‐Dichlorophenyl)‐3‐(4‐(((2‐Methoxyethyl)Amino)Methyl)‐3‐(Trifluoromethyl)Phenyl)Urea Hydrochloride]	–	100	–	–	–
O=C(Nc1cc(Cl)cc(Cl)c1)Nc1ccc(CNCCO)c(C(F)(F)F)c1 [Compound 59, 1‐(3,5‐Dichlorophenyl)‐3‐(4‐(((2‐Hydroxyethyl)Amino)Methyl)‐3‐(Trifluoromethyl)Phenyl)Urea Hydrochloride]	–	76 ± 11	–	–	–
COC(=O)CNCc1ccc(NC(=O)Nc2cc(Cl)cc(Cl)c2)cc1C(F)(F)F.Cl [Compound 61, Methyl (4‐(3‐(3,5‐Dichlorophenyl)Ureido)‐2‐(Trifluoromethyl)Benzyl)Glycinate Hydrochloride]	8.4 ± 0.46	43 ± 8	> 8.4	7 ± 0.6	kinetic solubility (Kinetic solubility): 21 µM L^−1; increase in kinetic solubility compared with compound 39 (Kinetic solubility; relative to compound 39): 1.7 fold
O=C(O)CNCc1ccc(NC(=O)Nc2cc(Cl)cc(Cl)c2)cc1C(F)(F)F [Compound 62, Lithium (4‐(3‐(3,5‐Dichlorophenyl)Ureido)‐2‐(Trifluoromethyl)Benzyl)Glycinate]	–	70 ± 10	–	–	–
